{
  "source": "paper PMC5775428",
  "about": "“Towards an experimental classification system for membrane active peptides” (Scientific Reports, 2018)",
  "key": {"[1]": {"conditions": "cited from earlier work"}, "[2]": {"conditions": "cited from earlier work", "remark": "listed apart in the source"}, "[3]": {"conditions": "cited from earlier work", "remark": "listed apart in the source"}, "[4]": {"conditions": "cited from earlier work", "remark": "listed apart in the source"}, "[5]": {"conditions": "cited from earlier work", "remark": "listed apart in the source"}, "[6]": {"conditions": "cited from earlier work", "remark": "listed apart in the source"}, "[7]": {"conditions": "cited from earlier work", "remark": "listed apart in the source"}, "[8]": {"conditions": "cited from earlier work", "remark": "listed apart in the source"}, "[9]": {"conditions": "cited from earlier work", "remark": "listed apart in the source"}, "[10]": {"conditions": "cited from earlier work", "remark": "listed apart in the source"}, "Escherichia coli": {"system": "Escherichia coli", "conditions": "Escherichia coli", "how_it_was_run": "(§1)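 Read-out was optical microscopy, with the MIC taken as the concentration showing no detectable cells. Peptides spanned 0.5 to 256 μM under CLSI M7-A10 conditions for bacteria, in three biological repetitions of duplicate wells.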"}, "[11]": {"system": "Pseudomonas syringae pv. tabaci", "conditions": "Pseudomonas syringae pv. tabaci", "how_it_was_run": "as §1"}, "Xanthomonas campestris": {"system": "Xanthomonas campestris", "how_it_was_run": "as §1"}, "Erwinia carotovora": {"system": "Erwinia carotovora", "conditions": "Erwinia carotovora", "how_it_was_run": "as §1"}, "Bacillus cereus": {"system": "Bacillus cereus", "conditions": "Bacillus cereus", "how_it_was_run": "as §1"}, "Staphylococcus aureus": {"system": "Staphylococcus aureus", "conditions": "Staphylococcus aureus", "how_it_was_run": "as §1"}, "Bacillus subtilis": {"system": "Bacillus subtilis", "conditions": "Bacillus subtilis", "how_it_was_run": "as §1"}, "Pseudomonas aeruginosa": {"system": "Pseudomonas aeruginosa", "conditions": "Pseudomonas aeruginosa", "how_it_was_run": "as §1"}, "Candida albicans": {"system": "Candida albicans", "conditions": "Candida albicans", "how_it_was_run": "(§2)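 MICs determined per CLSI M7-A10 (bacteria) and M27-A3 (yeasts) protocols, peptides tested at 0.5 to 256 μM. MIC taken as the lowest concentration with no cells seen by optical microscopy; three biological repeats with 2 technical replicates each.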"}, "Cryptococcus neoformans": {"system": "Cryptococcus neoformans", "conditions": "Cryptococcus neoformans", "how_it_was_run": "as §2"}},
  "note": "Where two headings read alike, the source gives them in different places.",
  "data": [
    {"substance": "Penetratin", "values": [
      {"measurement": "Tm broad component, DMPC LUVs", "setting": "[1]", "value": 23.5, "unit": "°C"},
      {"measurement": "Hv broad component, DMPC LUVs", "setting": "[2]", "value": 295000},
      {"measurement": "Hv broad component, 2:1 DMPC:DMPG LUVs", "setting": "[3]", "value": 116000},
      {"measurement": "Tm sharp component, 2:1 DMPC:DMPG LUVs", "setting": "[4]", "value": 24.5, "unit": "°C"},
      {"measurement": "Tm broad component, 2:1 DMPC:DMPG LUVs", "setting": "[5]", "value": 26.6, "unit": "°C"},
      {"measurement": "Tm sharp component, DMPC LUVs", "setting": "[6]", "value": 24.2, "unit": "°C"},
      {"measurement": "Hv sharp component, DMPC LUVs", "setting": "[7]", "value": "1.01e+06"},
      {"measurement": "H broad component, 2:1 DMPC:DMPG LUVs", "setting": "[8]", "value": 2560, "unit": "kcal/mol"},
      {"measurement": "H sharp component, 2:1 DMPC:DMPG LUVs", "setting": "[9]", "value": 3360, "unit": "kcal/mol"},
      {"measurement": "H broad component, DMPC LUVs", "setting": "[10]", "value": 2890, "unit": "kcal/mol"}
    ]},
    {"substance": "Syphaxin", "values": [
      {"measurement": "Tm broad component, DMPC LUVs", "setting": "[1]", "value": 25.4, "unit": "°C"},
      {"measurement": "Hv broad component, DMPC LUVs", "setting": "[2]", "value": 120000},
      {"measurement": "Hv broad component, 2:1 DMPC:DMPG LUVs", "setting": "[3]", "value": 101000},
      {"measurement": "Tm sharp component, 2:1 DMPC:DMPG LUVs", "setting": "[4]", "value": 22.8, "unit": "°C"},
      {"measurement": "Tm broad component, 2:1 DMPC:DMPG LUVs", "setting": "[5]", "value": 25.4, "unit": "°C"},
      {"measurement": "Tm sharp component, DMPC LUVs", "setting": "[6]", "value": 21.9, "unit": "°C"},
      {"measurement": "Hv sharp component, DMPC LUVs", "setting": "[7]", "value": 383000},
      {"measurement": "H broad component, 2:1 DMPC:DMPG LUVs", "setting": "[8]", "value": 3240, "unit": "kcal/mol"},
      {"measurement": "H sharp component, 2:1 DMPC:DMPG LUVs", "setting": "[9]", "value": 197, "unit": "kcal/mol"},
      {"measurement": "H broad component, DMPC LUVs", "setting": "[10]", "value": 2260, "unit": "kcal/mol"}
    ]},
    {"substance": "KVLSKVHTLLKAVLAL [At02]", "values": [
      {"measurement": "Minimum inhibitory concentration", "setting": "Escherichia coli; CLSI M7-A10, triplicate 1", "value": 2, "unit": "µM"},
      {"measurement": "Minimum inhibitory concentration, Average", "setting": "Escherichia coli; average of triplicates", "value": 2.0, "unit": "µM"},
      {"measurement": "Minimum inhibitory concentration", "setting": "Escherichia coli; triplicate 2", "value": 2, "unit": "µM"},
      {"measurement": "Minimum inhibitory concentration", "setting": "Escherichia coli; triplicate 3", "value": 2, "unit": "µM"},
      {"measurement": "Minimum inhibitory concentration", "setting": "[11]; CLSI M7-A10, triplicate 1", "value": 4, "unit": "µM"},
      {"measurement": "Minimum inhibitory concentration, Average", "setting": "[11]; average of triplicates", "value": 4.0, "unit": "µM"},
      {"measurement": "Minimum inhibitory concentration", "setting": "[11]; triplicate 2", "value": 4, "unit": "µM"},
      {"measurement": "Minimum inhibitory concentration", "setting": "[11]; triplicate 3", "value": 4, "unit": "µM"},
      {"measurement": "Minimum inhibitory concentration", "setting": "Xanthomonas campestris; CLSI M7-A10, triplicate 1", "value": 1, "unit": "µM"},
      {"measurement": "Minimum inhibitory concentration, Average", "setting": "Xanthomonas campestris; average of triplicates", "value": 1.0, "unit": "µM"},
      {"measurement": "Minimum inhibitory concentration", "setting": "Xanthomonas campestris; triplicate 2", "value": 1, "unit": "µM"},
      {"measurement": "Minimum inhibitory concentration", "setting": "Xanthomonas campestris; triplicate 3", "value": 1, "unit": "µM"},
      {"measurement": "Minimum inhibitory concentration", "setting": "Erwinia carotovora; CLSI M7-A10, triplicate 1", "value": 1, "unit": "µM"},
      {"measurement": "Minimum inhibitory concentration, Average", "setting": "Erwinia carotovora; average of triplicates", "value": 1.0, "unit": "µM"},
      {"measurement": "Minimum inhibitory concentration", "setting": "Erwinia carotovora; triplicate 2", "value": 1, "unit": "µM"},
      {"measurement": "Minimum inhibitory concentration", "setting": "Erwinia carotovora; triplicate 3", "value": 1, "unit": "µM"},
      {"measurement": "Minimum inhibitory concentration", "setting": "Bacillus cereus; CLSI M7-A10, triplicate 1", "value": 2, "unit": "µM"},
      {"measurement": "Minimum inhibitory concentration, Average", "setting": "Bacillus cereus; average of triplicates", "value": 3.3, "unit": "µM"},
      {"measurement": "Minimum inhibitory concentration", "setting": "Bacillus cereus; triplicate 2", "value": 4, "unit": "µM"},
      {"measurement": "Minimum inhibitory concentration", "setting": "Bacillus cereus; triplicate 3", "value": 4, "unit": "µM"},
      {"measurement": "Minimum inhibitory concentration", "setting": "Staphylococcus aureus; CLSI M7-A10, triplicate 1", "value": 4, "unit": "µM"},
      {"measurement": "Minimum inhibitory concentration, Average", "setting": "Staphylococcus aureus; average of triplicates", "value": 4.0, "unit": "µM"},
      {"measurement": "Minimum inhibitory concentration", "setting": "Staphylococcus aureus; triplicate 2", "value": 4, "unit": "µM"},
      {"measurement": "Minimum inhibitory concentration", "setting": "Staphylococcus aureus; triplicate 3", "value": 4, "unit": "µM"},
      {"measurement": "Minimum inhibitory concentration", "setting": "Bacillus subtilis; CLSI M7-A10, triplicate 1", "value": 1, "unit": "µM"},
      {"measurement": "Minimum inhibitory concentration, Average", "setting": "Bacillus subtilis; average of triplicates", "value": 1.0, "unit": "µM"},
      {"measurement": "Minimum inhibitory concentration", "setting": "Bacillus subtilis; triplicate 2", "value": 1, "unit": "µM"},
      {"measurement": "Minimum inhibitory concentration", "setting": "Bacillus subtilis; triplicate 3", "value": 1, "unit": "µM"},
      {"measurement": "Minimum inhibitory concentration", "setting": "Pseudomonas aeruginosa; CLSI M7-A10, triplicate 1", "value": 4, "unit": "µM"},
      {"measurement": "Minimum inhibitory concentration, Average", "setting": "Pseudomonas aeruginosa; average of triplicates", "value": 5.3, "unit": "µM"},
      {"measurement": "Minimum inhibitory concentration", "setting": "Pseudomonas aeruginosa; triplicate 2", "value": 4, "unit": "µM"},
      {"measurement": "Minimum inhibitory concentration", "setting": "Pseudomonas aeruginosa; triplicate 3", "value": 8, "unit": "µM"},
      {"measurement": "Minimum inhibitory concentration", "setting": "Candida albicans; CLSI M27-A3, 0.5 to 256 μM tested, triplicate 1, also published in ref 7", "value": 8, "unit": "µM"},
      {"measurement": "Minimum inhibitory concentration, Average", "setting": "Candida albicans; average of triplicates", "value": 8.0, "unit": "µM"},
      {"measurement": "Minimum inhibitory concentration", "setting": "Candida albicans; triplicate 2", "value": 8, "unit": "µM"},
      {"measurement": "Minimum inhibitory concentration", "setting": "Candida albicans; triplicate 3", "value": 8, "unit": "µM"},
      {"measurement": "Minimum inhibitory concentration", "setting": "Cryptococcus neoformans; CLSI M27-A3, triplicate 1", "value": 4, "unit": "µM"},
      {"measurement": "Minimum inhibitory concentration, Average", "setting": "Cryptococcus neoformans; average of triplicates", "value": 4.0, "unit": "µM"},
      {"measurement": "Minimum inhibitory concentration", "setting": "Cryptococcus neoformans; triplicate 2", "value": 4, "unit": "µM"},
      {"measurement": "Minimum inhibitory concentration", "setting": "Cryptococcus neoformans; triplicate 3", "value": 4, "unit": "µM"}
    ]}
  ]
}
